Laboratory results as given in patent publication US10501493B2, “Broad spectrum antibiotics” (priority 2011, dated 2019).
pIC50: −log10 of the molar value. Converted amounts (≈) assume the structure as drawn. Like-named read-outs stand apart in the source and are kept apart here.

Legend:
[1] = tested on: E. col ATCC 25922 LepB(P84L); assay: In vitro antimicrobial activity, MIC by broth micro-dilution; assay type: cell-based, E. coli; details: for MIC: Escherichia coli, ATCC25922, read-out: MIC class, E. col ATCC 25922 LepB(P84L)
Method: (§1) In vitro antimicrobial activity of each compound was determined by measuring minimal inhibitor concentrations (MICs) using the broth micro-dilution technique as approved by the Clinical and Laboratory Standards Institute (CLSI). The microbiological panel examined contains a number of bacterial species including E. coli MG1655, P. aeruginosa, S. aureus, and S. epidermidis. In addition, the panel includes previously described pseudo-isogenic strains of these four species (P. A. Smith et al. Chem Biol 2010, 1223-1231), in which a specific proline residue in SPase (called LepB in Gram-negative organisms an SpsB in Gram-positive organisms) has been mutated to a different amino acid. The resulting strains have increased susceptibility to the arylomycin class of antibiotics. Analysis of the strains lacking this proline residue will increases the dynamic range of the assay, and comparison of the sensitivities of the isogenic pairs provides ongoing confirmation that the activity gained through derivatization is specific to the inhibition of SPase. Briefly, bacterial streaks were grown on Mueller Hinton Agar II (Difco™) with or without 5% lysed horse blood for a period of 24 hours at either 35° C. or 28° C. Bacterial colonies were suspended in cation adjusted Mueller Hinton broth and diluted to a final concentration of 1*10^7 colony forming units/ml. Two-fold serial dilutions of each compound were arrayed into 96-well plates (100 μl final volume per well) and 5 ul of the bacterial suspension will be added. […] MICs were periodically checked plating serial dilutions of MIC wells and quantitatively determining viable colonies.

E. coli SPase = molecular target: T1, E. coli SPase (Escherichia coli, UniProt P00803); assay: Enzymatic fluorogenic substrate cleavage assay for IC50; assay type: biochemical
T1 construct: Full length His-tagged E. coli SPase proteins were expressed in E. coli BL21(DE3); His-tag; made in house; host or cells: E. coli BL21(DE3)
Method: (§2) Full length His-tagged E. coli SPase proteins were expressed in E. coli BL21(DE3) containing the plasmid pET23-lepB, P. A. Smith et al. Chem Biol 2010, 1223-1231. Briefly, saturated overnight cultures grown in 20 ml of Luria-Bertani medium supplemented with ampicillin were subcultures into 1.5 L of Luria-Bertani, and shaken at 37° C. until an optical density at 600 nm of 0.4-0.5 was achieved. Protein expression was induced with Isopropyl β-D-1-thiogalactopyranoside (ITPG) at a final concentration of […], and purified using nickel affinity chromatography. Full length His-tagged S. aureus SPase protein was expressed similarly from E. coli BL21(DE3) containing the plasmid pCDF1-SaSpsB or pCDF1-SaSpsB(P29S) and purified similarly to the E. coli protein with the following exceptions. SPase protein was solubilized using 300 mM NaCl, 20 mM Tris pH 8.06, 5 mM Imidazole, 10% glycerol, 1% Triton X-100, prior to purification in Ni-NTA Superflow resin and resin bound protein was washed in a similar buffer containing 1% Elugent in place of Triton X-100 prior to protein eluted in wash buffer supplemented with 300 mM imidazole. Protein purify was judged to exceed 95% by visual inspection of SDS-PAGE followed by Comassie staining. All protein concentrations were determined by BCA assay.
(§3) In addition to the equilibrium binding assays, compound activity is also characterized by measuring inhibition of E. coli and S. aureus substrate cleavage reactions using fluorogenic peptides developed at RQx Pharmaceuticals. Briefly, two fluorogenic peptide substrates (decanoyl-LSSPA Y^NO2 A ? ADK^abzPD (SEQ ID NO: 1) and decanyol-LTPTAY^NO2 A ? ASKK^abzDD (SEQ ID NO: 2)) have been synthesized, where abz is the fluorescence donor 2-aminobenzamide, YNO2 is the fluorescence acceptor 3-nitrotyrosine, and the cleavage site is indicated with an arrow. These substrates are processed with a second order rate constant (Kcat/KM) of 10^5 M^−1s^−1 for E. coli and S. aureus SPase enzymes, and cleavage results in a greater than 10-fold increase in fluorescence signal (excitation at 314 nm, emission at 416 nm) as measured using a SpectraMax M2 fluorescence microplate reader. Two-folder serial dilutions of compound are prepared in cleavage reaction buffer consisting of: 50 mM Tris-HCl pH 8.0, 100 mM NaCl, 10% glycerol, 1 mM EDTA, detergent (1% NP-40 or 0.1% Elugent™ for E. coli LepB or S. aureus SpsB respectively) and either 2.5 nM of E. coli SPase enzyme or 10 nM of S. aureus SPase enzyme. 40 μl aliquots of the compound dilution series in the protein/buffer solution is transferred to black 384-well polypropylene plates, and 10 μl of fluorogenic peptide at a concentration of 100 μM is added to initiate the reaction. The increase in fluorescence, corresponding to substrate cleavage, is monitored continuously at room temperature for 30 minutes and initial reaction rates are calculated based in the linear increase in fluorescence from the initial 30 minutes of the reaction. Reaction rates are plotted as a function of compound concentration, and IC50 values are determined nonlinear regression analysis (SoftMax® Pro v5.4) of the sigmoidal dose-response curve.

S. aureus SPase = molecular target: T2, S. aureus SPase (Staphylococcus aureus, UniProt P0A070); assay: as above; assay type: biochemical
T2 construct: Full length His-tagged S. aureus SPase protein was expressed similarly; His-tag; made in house; host or cells: E. coli BL21(DE3)
Method: as §2, §3

S. epidermidis RP62A = assay: In vitro antimicrobial activity, MIC by broth micro-dilution; assay type: cell-based; details: for MIC: Staphylococcus epidermidis, RP62A, read-out: MIC class, S. epidermidis RP62A
Method: as §1

E. coli ATCC 25922 = assay: as above; assay type: cell-based; details: for MIC: Escherichia coli, ATCC25922, read-out: MIC class, E. coli ATCC 25922
Method: as §1

[2] = tested on: S. aureus NCTC-8325 SpsB(P295); assay: as above; assay type: cell-based; details: for MIC: Staphylococcus aureus, NCTC8325, read-out: MIC class, S. aureus NCTC-8325 SpsB(P295)
Method: as §1

S. pneumoniae D39 = assay: as above; assay type: cell-based; details: for MIC: Streptococcus pneumoniae, D39, read-out: MIC class, S. pneumoniae D39
Method: as §1

S. aurues NCTC-8325 = assay: as above; assay type: cell-based, S. aureus; details: for MIC: Staphylococcus aureus, NCTC8325, read-out: MIC class, S. aurues NCTC-8325
Method: as §1

| Structure (SMILES) | MIC class, E. col ATCC 25922 LepB(P84L) ([1]; E. col ATCC 25922 LepB(P84L)) | pIC50 (E. coli SPase; fluorogenic peptide cleavage, read-out: IC50 class E. coli SPase) | pIC50 (S. aureus SPase; fluorogenic peptide cleavage, read-out: IC50 class S. aureus SPase) | MIC class, S. epidermidis RP62A (S. epidermidis RP62A; S. epidermidis RP62A) | MIC class, E. coli ATCC 25922 (E. coli ATCC 25922; E. coli ATCC 25922) | MIC class, S. aureus NCTC-8325 SpsB(P295) ([2]; S. aureus NCTC-8325 SpsB(P295)) | MIC class, S. pneumoniae D39 (S. pneumoniae D39; S. pneumoniae D39) | MIC class, S. aurues NCTC-8325 (S. aurues NCTC-8325; S. aurues NCTC-8325) | MIC [1] | pIC50 (E. coli SPase) | pIC50 (S. aureus SPase) | MIC (S. epidermidis RP62A) | MIC (E. coli ATCC 25922) | MIC [2] | MIC (S. pneumoniae D39) | MIC (S. aurues NCTC-8325) |
| --- | --- | --- | --- | --- | --- | --- | --- | --- | --- | --- | --- | --- | --- | --- | --- | --- |
| CCCCCCCCCCCCCCCC(=O)N(C)[C@H](CO)C(=O)N[C@H](C)C(=O)NCC(=O)N(C)[C@@H]1C(=O)N[C@@H](C)C(=O)N[C@H](C(=O)O)CCCc2ccc(O)c(c2)-c2cc1ccc2O [Compound 83] | c (MIC ≤8 μg/ml) | 5.00 to 6.00 | > 6.00 | c (MIC ≤8 μg/ml) | a (MIC >64 μg/ml) | b (MIC 16-64 μg/ml) | c (MIC ≤8 μg/ml) | a (MIC >64 μg/ml) |  |  |  |  |  |  |  |  |
| CCCCCCCCCCCCCCCC(=O)N(C)[C@H](CO)C(=O)N[C@H](C)C(=O)NCC(=O)N(C)[C@@H]1C(=O)N[C@@H](C)C(=O)N[C@H](C(=O)NCCOC)Cc2ccc(O)c(c2)-c2cc1ccc2O [Compound 61] |  |  |  |  |  |  |  |  | 16 to 64 µg/mL (≈ 17.1 to 68.2 µM) | 5.00 to 6.00 | < 5.00 | > 64 µg/mL | > 64 µg/mL | > 64 µg/mL | < 8 µg/mL | > 64 µg/mL |
| CCCCCCCCCCCCCCCC(=O)N[C@H](CO)C(=O)N[C@H](C)C(=O)N[C@@H](C)C(=O)N(C)[C@@H]1C(=O)N[C@@H](C)C(=O)N[C@H](C(=O)O)Cc2ccc(O)c(c2)-c2cc1ccc2O [Compound 87] |  |  |  |  |  |  |  |  | > 64 µg/mL | > 6.00 | > 6.00 | < 8 µg/mL | > 64 µg/mL | > 64 µg/mL | > 64 µg/mL | > 64 µg/mL |
| CCCCCCCCCCCCCCCC(=O)N(C)[C@H](CO)C(=O)N[C@H](C)C(=O)NCC(=O)N(C)[C@@H]1C(=O)N[C@@H](C)C(=O)N[C@H](C(=O)NCC(O)C(=O)O)Cc2ccc(O)c(c2)-c2cc1ccc2O (some centres unmarked) [Compound 78] |  |  |  |  |  |  |  |  | > 64 µg/mL | > 6.00 | < 5.00 | > 64 µg/mL | > 64 µg/mL | > 64 µg/mL | 16 to 64 µg/mL (≈ 16.5 to 66.1 µM) | > 64 µg/mL |
| CCCCCCCCCCCCCCCC(=O)N(C)[C@H](CO)C(=O)N[C@H](C)C(=O)NCC(=O)N(C)[C@@H]1C(=O)N[C@@H](C)C(=O)N[C@H](C(=O)NCC(=O)NS(C)(=O)=O)Cc2ccc(O)c(c2)-c2cc1ccc2O [Compound 60] |  |  |  |  |  |  |  |  | < 8 µg/mL | > 6.00 | 5.00 to 6.00 | < 8 µg/mL | > 64 µg/mL | > 64 µg/mL | < 8 µg/mL | > 64 µg/mL |
| CCCCCCCCCCCCCCCC(=O)N(C)[C@H](CO)C(=O)N[C@H](C)C(=O)NCC(=O)N(C)[C@@H]1C(=O)N[C@@H](C)C(=O)N[C@H](C(=O)NC[C@@H](C)O)Cc2ccc(O)c(c2)-c2cc1ccc2O [Compound 65] |  |  |  |  |  |  |  |  | 16 to 64 µg/mL (≈ 17.1 to 68.2 µM) | > 6.00 | 5.00 to 6.00 | < 8 µg/mL | > 64 µg/mL | > 64 µg/mL | 16 to 64 µg/mL (≈ 17.1 to 68.2 µM) | > 64 µg/mL |
| CCCCCCCCCCCCCCCC(=O)N(C)[C@H](CO)C(=O)N[C@H](C)C(=O)NCC(=O)N(C)[C@@H]1C(=O)N[C@@H](C)C(=O)N[C@H](C(=O)NCC(O)C(=O)OC)Cc2ccc(O)c(c2)-c2cc1ccc2O (some centres unmarked) [Compound 75] |  |  |  |  |  |  |  |  | < 8 µg/mL | > 6.00 | < 5.00 | < 8 µg/mL | > 64 µg/mL | > 64 µg/mL | < 8 µg/mL | > 64 µg/mL |
| CCCCCCCCCCC(=O)N(C)[C@H](CO)C(=O)N[C@H](C)C(=O)NCC(=O)N(C)[C@@H]1C(=O)N[C@@H](C)C(=O)N[C@H](C(=O)O)Cc2ccc(O)c(c2)-c2cc1ccc2O [Compound 85] |  |  |  |  |  |  |  |  | 16 to 64 µg/mL (≈ 19.7 to 78.9 µM) | > 6.00 | 5.00 to 6.00 | < 8 µg/mL | > 64 µg/mL | > 64 µg/mL | > 64 µg/mL | > 64 µg/mL |
| CCCCCCCCCCCCCCCC(=O)N(C)[C@H](CO)C(=O)N[C@H](C)C(=O)NCC(=O)N(C)[C@@H]1C(=O)N[C@@H](C)C(=O)N[C@H](C(=O)NC[C@H](C)O)Cc2ccc(O)c(c2)-c2cc1ccc2O [Compound 64] |  |  |  |  |  |  |  |  | 16 to 64 µg/mL (≈ 17.1 to 68.2 µM) | 5.00 to 6.00 | < 5.00 | < 8 µg/mL | > 64 µg/mL | > 64 µg/mL | < 8 µg/mL | > 64 µg/mL |
| CCCCCCCCCCCCCCNC(=O)N(C)[C@H](CO)C(=O)N[C@H](C)C(=O)NCC(=O)N(C)[C@@H]1C(=O)N[C@@H](C)C(=O)N[C@H](C(=O)O)Cc2ccc(O)c(c2)-c2cc1ccc2O [Compound 72] |  |  |  |  |  |  |  |  | < 8 µg/mL | > 6.00 | > 6.00 | < 8 µg/mL | > 64 µg/mL | 16 to 64 µg/mL (≈ 18.1 to 72.6 µM) | 16 to 64 µg/mL (≈ 18.1 to 72.6 µM) | > 64 µg/mL |
